Reference: patent US4550186A, “Binuclear copper (II) carboxylates formed from amine-carboxyboranes” (Duke University, priority 1983, dated 1985)

What was measured:
[1] = system: protein synthesis of Ehrlich ascites cells; assay: In vivo leucine incorporation into protein; set-up: species or system mouse
Description: CF1 male mice (~30 g) were implanted with 2×10^6 Ehrlich ascites tumor cells, intraperitoneally on Day 0. Compound I was suspended by homogenation in 0.05% polysorbate.80-water and administered intraperitoneally at 10 and 20 mg/kg for 9 days to determine its effectiveness for inhibition of tumor growth. Mice were sacrificed on Day 10, and the ascites fluid was collected from the peritoneal cavity. The volume and ascrit (packed cell volume) were determined for each animal and the percent inhibition of tumor growth was calculated. For the metabolic studies, mice were treated on Days 8 and 9 with 10 mg/kg of Compound I, intraperitoneally. The animal was sacrificed on Day 10 and the ascites fluid harvested. […]
For in vivo studies, incorporation of thymidine into deoxyribonucleic acid was determined by the method of Chae et al [Proc. Am. […] The deoxyribonucleic acid was isolated and the tritium content was determined in a toluene based scintillation fluid. The deoxyribonucleic acid concentration was determined by the diphenylamine reaction using calf thymus deoxyribonucleic acid as a standard. Uridine incorporation into ribonucleic acid was determined using 10 μCi of 5,6-^3 H-uridine (22.4 Ci/mmol). […] Leucine incorporation into protein was determined by the method of Sartorelli [Biochem. Biophys. […] Protein content was determined by the Lowry procedure using bovine serum albumin as a standard.

Holtzman male rats = assay: Plasma lipoprotein fractions; type: in vivo, rat; conditions: 14 days 10 mg/kg/day orally
Description: […] On day 14, blood was collected from the abdominal aorta. Serum was separated from whole blood by centrifugation at 3500 rpm. Aliquots (3 ml) were separated by density gradient ultracentrifugation according to the method of Hatch and Lees [Adv. Lipid Res., 6, 33 (1968)] and Havel et al [J. Clin. Invest., 34, 1395 (1955)] into the chylomicrons,very low density lipoproteins, high density lipoproteins and low density lipoproteins. Each of the fractions was analyzed for cholesterol, triglyceride, neutral lipids, phospholipids and protein levels.
Data are expressed in the Table 2-7 as percent of control ± the standard deviation. The probable significant level (P) between each test group and the control group was determined by the Student's "t" test.

[2] = system: Mitochondrial Citrate Exchange; assay: In vitro liver enzyme study: mitochondrial citrate exchange; type: biochemical, mouse; conditions: in vitro CF1 liver, 10 min
Description: (§1) In vitro enzymatic studies were determined using 10% homogenates of CF1 male mouse liver with 50-200 μM of test drugs. In vivo enzymatic studies were determined using 10% homogenates of liver from CF1 male mice obtained after administering the agents for 16 days at a dose ranging from 2.5-20 mg/kg/day intraperitoneally. The liver homogenates for both in vitro and in vivo studies were prepared in 0.25M sucrose and 0.001M (ethylenedinitrilo)tetraacetic acid. Acetyl coenzyme A synthetase and adenosine triphosphate dependent citrate lyase activities were determined spectrophotometrically at 540 nm as the hydroxylamate of acetyl coenzyme A formed after 30 min at 37° C. Mitochondrial citrate exchange was determined by the procedure of Robinson et al [Eur. J. Biochem., 216, 63 (1970)] using ^14 C-sodium bicarbonate (41 mCi/mmol) incorporated into mitochondrial ^14 C-citrate after isolating rat mitochondria (9000 g×10 min) from the homogenates. The exchanges of the ^14 C-citrate were determined after incubating the mitochondrial fraction which was loaded with labeled citrate and test drugs for 10 min. Then the radioactivity was measured in the mitochondrial and supernantant fractions in scintillation fluid and expressed as a percentage. Cholesterol side chain oxidation was determined by the method of Kritchevsky and Tepper [Artherosclerosis, 18, 93 (1973)] using (26-^14 C) cholesterol (50 mCi/mmol) and mitochondria isolated from rat liver homogenates. […] Fatty acid synthetase activity was determined by the method of Brady et al [J. Biol. Chem., 235, 3093 (1960)] using [2-^14 C] malonyl-coenzyme A (37.5 mCi/mmol) which was incorporated into newly synthesized fatty acids that were extracted with ether and counted. Acyl transferase activity was determined with glycerol-3phosphate [L-2-^3 H(N)] […] HCl and counted. Phosphatidate phosphohydrolase activity was measured as the inorganic phosphate released after 30 min from phosphatidic acid by the method of Mavis et al [J. Lipid Res., 19, 467 (1978)]. […]

Fatty Acid Synthetase = molecular target: T1, Fatty Acid Synthetase (Mus musculus, UniProt P19096); assay: In vitro liver enzyme study: fatty acid synthetase; type: biochemical; conditions: in vitro CF1 liver
T1 construct: 10% homogenates of CF1 male mouse liver; from tissue; host or cells: CF1 male mouse liver, 10% homogenate
Description: as §1

T1 sequence (P19096 whole entry): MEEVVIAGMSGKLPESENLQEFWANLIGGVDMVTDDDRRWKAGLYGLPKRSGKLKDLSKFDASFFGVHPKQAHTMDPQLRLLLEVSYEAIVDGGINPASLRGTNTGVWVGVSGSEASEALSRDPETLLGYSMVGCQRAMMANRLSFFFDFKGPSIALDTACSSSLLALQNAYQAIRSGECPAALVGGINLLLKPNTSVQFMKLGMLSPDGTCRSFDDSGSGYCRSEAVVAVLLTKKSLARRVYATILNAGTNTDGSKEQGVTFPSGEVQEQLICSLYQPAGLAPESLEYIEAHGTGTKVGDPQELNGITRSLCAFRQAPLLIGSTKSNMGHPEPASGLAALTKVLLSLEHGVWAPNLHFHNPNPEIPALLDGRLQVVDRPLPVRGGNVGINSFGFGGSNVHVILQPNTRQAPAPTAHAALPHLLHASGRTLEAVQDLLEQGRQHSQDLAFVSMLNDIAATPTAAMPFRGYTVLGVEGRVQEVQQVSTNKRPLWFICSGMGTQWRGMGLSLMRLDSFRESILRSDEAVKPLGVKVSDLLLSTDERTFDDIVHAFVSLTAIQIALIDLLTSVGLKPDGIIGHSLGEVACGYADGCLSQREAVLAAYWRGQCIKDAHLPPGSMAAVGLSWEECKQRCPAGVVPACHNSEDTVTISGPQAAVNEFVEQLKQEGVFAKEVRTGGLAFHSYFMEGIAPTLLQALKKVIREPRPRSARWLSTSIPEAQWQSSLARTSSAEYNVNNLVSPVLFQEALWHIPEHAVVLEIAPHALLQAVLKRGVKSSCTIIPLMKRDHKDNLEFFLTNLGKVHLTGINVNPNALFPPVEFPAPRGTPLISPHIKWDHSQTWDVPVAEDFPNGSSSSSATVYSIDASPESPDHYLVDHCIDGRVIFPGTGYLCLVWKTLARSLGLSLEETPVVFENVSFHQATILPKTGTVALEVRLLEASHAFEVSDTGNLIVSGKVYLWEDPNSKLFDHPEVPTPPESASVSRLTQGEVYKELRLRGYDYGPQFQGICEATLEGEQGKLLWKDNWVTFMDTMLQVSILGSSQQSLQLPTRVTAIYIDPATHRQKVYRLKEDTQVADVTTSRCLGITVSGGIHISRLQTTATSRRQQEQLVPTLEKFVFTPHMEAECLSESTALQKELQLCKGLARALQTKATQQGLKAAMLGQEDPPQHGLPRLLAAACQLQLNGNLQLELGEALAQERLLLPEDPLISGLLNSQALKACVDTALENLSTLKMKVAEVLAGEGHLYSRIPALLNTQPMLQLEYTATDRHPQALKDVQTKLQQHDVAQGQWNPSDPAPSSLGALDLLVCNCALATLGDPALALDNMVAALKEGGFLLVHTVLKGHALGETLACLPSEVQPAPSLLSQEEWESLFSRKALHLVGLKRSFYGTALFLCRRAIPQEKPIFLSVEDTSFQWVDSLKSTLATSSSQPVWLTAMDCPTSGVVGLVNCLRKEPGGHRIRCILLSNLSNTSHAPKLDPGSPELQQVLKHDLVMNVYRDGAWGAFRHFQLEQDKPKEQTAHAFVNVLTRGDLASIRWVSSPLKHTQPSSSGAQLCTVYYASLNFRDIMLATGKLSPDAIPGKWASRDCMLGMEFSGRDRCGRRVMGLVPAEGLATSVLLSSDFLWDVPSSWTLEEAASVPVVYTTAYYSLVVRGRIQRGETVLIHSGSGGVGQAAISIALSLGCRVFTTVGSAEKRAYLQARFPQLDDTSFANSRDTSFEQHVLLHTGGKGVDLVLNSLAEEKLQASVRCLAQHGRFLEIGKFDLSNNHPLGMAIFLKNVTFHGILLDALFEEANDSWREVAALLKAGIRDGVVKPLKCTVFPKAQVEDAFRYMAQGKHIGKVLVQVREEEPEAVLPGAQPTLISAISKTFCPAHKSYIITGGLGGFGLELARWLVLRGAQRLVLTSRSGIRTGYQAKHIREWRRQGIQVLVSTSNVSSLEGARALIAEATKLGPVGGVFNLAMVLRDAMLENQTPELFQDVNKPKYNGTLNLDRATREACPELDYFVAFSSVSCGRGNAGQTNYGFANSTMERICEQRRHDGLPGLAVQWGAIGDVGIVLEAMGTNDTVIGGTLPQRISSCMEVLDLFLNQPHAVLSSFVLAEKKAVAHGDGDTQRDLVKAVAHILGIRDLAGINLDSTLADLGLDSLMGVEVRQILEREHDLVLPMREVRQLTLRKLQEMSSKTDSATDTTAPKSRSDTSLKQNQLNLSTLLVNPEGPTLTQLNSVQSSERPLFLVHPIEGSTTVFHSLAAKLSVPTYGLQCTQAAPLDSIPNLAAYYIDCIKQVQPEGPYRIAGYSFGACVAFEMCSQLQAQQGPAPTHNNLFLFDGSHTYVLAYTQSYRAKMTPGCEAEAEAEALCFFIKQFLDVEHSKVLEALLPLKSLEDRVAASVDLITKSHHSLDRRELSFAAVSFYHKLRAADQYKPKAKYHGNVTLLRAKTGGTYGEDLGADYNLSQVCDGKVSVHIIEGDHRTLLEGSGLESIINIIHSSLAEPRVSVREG

{Cu[(CH3)3 N.BH2 CO2 ]2.(CH3)3 N.BH2 COOH} [Compound I]
3H-Leucine incorporation into protein ([1]; 10 mg/kg/day I.P. on Days 8 and 9): 48 ± 6 % Control
Leucine incorporation into protein inhibited ([1]; 10 day Ehrlich ascites cells): 52%
Cholesterol (Holtzman male rats; rat serum Chylomicrons): 88 ± 6 Percent Control
Neutral Lipids (Holtzman male rats; rat serum Chylomicrons): 67 ± 7 Percent Control
Phospholipids (Holtzman male rats; rat serum Chylomicrons): 96 ± 6 Percent Control
Protein (Holtzman male rats; rat serum Chylomicrons): 99 ± 7 Percent Control
Triglyceride (Holtzman male rats; rat serum Chylomicrons): 58 ± 5 Percent Control
Cholesterol (Holtzman male rats; rat serum HDL): 64 ± 5 Percent Control
Neutral Lipids (Holtzman male rats; rat serum HDL): 72 ± 8 Percent Control
Phospholipids (Holtzman male rats; rat serum HDL): 86 ± 7 Percent Control
Protein (Holtzman male rats; rat serum HDL): 108 ± 8 Percent Control
Triglyceride (Holtzman male rats; rat serum HDL): 31 ± 5 Percent Control
Cholesterol (Holtzman male rats; rat serum LDL): 68 ± 6 Percent Control
Neutral Lipids (Holtzman male rats; rat serum LDL): 78 ± 7 Percent Control
Phospholipids (Holtzman male rats; rat serum LDL): 105 ± 6 Percent Control
Protein (Holtzman male rats; rat serum LDL): 101 ± 6 Percent Control
Triglyceride (Holtzman male rats; rat serum LDL): 70 ± 6 Percent Control
Cholesterol (Holtzman male rats; rat serum VLDL): 32 ± 3 Percent Control
Neutral Lipids (Holtzman male rats; rat serum VLDL): 62 ± 5 Percent Control
Phospholipids (Holtzman male rats; rat serum VLDL): 100 ± 7 Percent Control
Protein (Holtzman male rats; rat serum VLDL): 96 ± 7 Percent Control
Triglyceride (Holtzman male rats; rat serum VLDL): 43 ± 4 Percent Control
Mitochondrial Citrate Exchange ([2]; 50 μM): 105 ± 6 Percent Control
Mitochondrial Citrate Exchange ([2]; 100 μM): 104 ± 6 Percent Control
Mitochondrial Citrate Exchange ([2]; 200 μM): 103 ± 7 Percent Control
Fatty Acid Synthetase (Fatty Acid Synthetase; 50 μM): 86 ± 7 Percent Control
Fatty Acid Synthetase (Fatty Acid Synthetase; 100 μM): 96 ± 8 Percent Control
Fatty Acid Synthetase (Fatty Acid Synthetase; 200 μM): 87 ± 7 Percent Control
